Legend:
[1] = target: T1, CYP2J2 (Homo sapiens, UniProt P51589); assay: Enzyme kinetics with recombinant CYP2J2 and scaling to HLM; type: in vitro ADME
T1 construct: purchased BD Biosciences
T1 sequence (P51589 1-502): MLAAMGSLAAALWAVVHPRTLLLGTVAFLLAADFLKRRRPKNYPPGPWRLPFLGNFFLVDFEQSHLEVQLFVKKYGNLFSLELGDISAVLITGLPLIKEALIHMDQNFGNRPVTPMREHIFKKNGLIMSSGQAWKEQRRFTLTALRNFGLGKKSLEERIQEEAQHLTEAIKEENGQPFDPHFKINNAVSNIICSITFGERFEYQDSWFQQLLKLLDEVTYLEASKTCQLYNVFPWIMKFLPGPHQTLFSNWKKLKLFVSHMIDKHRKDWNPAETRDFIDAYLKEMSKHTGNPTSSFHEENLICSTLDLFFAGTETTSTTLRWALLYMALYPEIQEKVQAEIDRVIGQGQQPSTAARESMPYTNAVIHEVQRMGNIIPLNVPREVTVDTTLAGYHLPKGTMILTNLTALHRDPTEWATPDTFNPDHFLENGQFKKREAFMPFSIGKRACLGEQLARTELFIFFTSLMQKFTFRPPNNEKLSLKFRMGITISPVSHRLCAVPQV
Experimental: (§1) In vitro incubations were carried out in 100‐mM potassium phosphate buffer (pH 7.4) and 5‐mM MgCl2 with a total volume of 200 µL. Substrate and either human liver microsomes (HLM, BD Biosciences, mixed gender pool of n = 50) or recombinant human enzymes (BD Biosciences) were added and pre‐incubated for 3 minutes at 37°C. The reaction was started by addition of a fresh solution of NADPH (1 mmol/L final concentration). The samples were incubated at 37°C with agitation of 500 rpm. For incubations with CYP2A6, CYP2C9, CYP2C18, and CYP4A11, the phosphate buffer was replaced by TRIS buffer (100 mmol/L, pH 7.4) and for flavin‐containing monooxygenases (FMOs), a glycine buffer (50 mM, pH 9.5) was used.
The enzymatic reaction was stopped and the protein was precipitated by addition of an equal volume of methanol. After 30 min at −80°C, the samples were centrifuged at 30'000 x g for 15 min. The supernatant was withdrawn. Aliquots were analyzed by LSC and the supernatant was diluted with water to obtain a final solution containing less than 20% of the organic solvent. For samples of low substrate concentration, supernatants were evaporated to dryness under nitrogen, then re‐suspended in water containing less than 20% of methanol. Samples were analyzed by HPLC combined with radiodetection. […]

[2] = Human ADME study: quantitative metabolite profiling in urine and feces; type: in vivo; details: pooled excreta n=6, from metabolite patterns (radio profiling)
Experimental: Average pools across the six subjects were also created by combining equal percentages (of total urine and feces excreted over the time interval) of the individual subject pools. Urine pools were analyzed directly for metabolite profiling (column recovery of a representative sample was measured), whereas feces pools were subjected to extraction. Specifically, to each aliquot of feces homogenate, two volumes of acetonitrile were added. After centrifugation, the pellet was washed further with an additional two volumes of acetonitrile. […] All washes were combined, evaporated under nitrogen, and reconstituted with a solution of 15‐mM ammonium formate (pH 3.5). This feces extract reconstitute was analyzed for metabolite profiling. Combined extraction and reconstitution (overall recovery) and column recovery were measured. […] The HPLC column used was a Phenomenex Kinetex, C18, 250 × 4.6 mm, equipped with a pre‐column of the same type (2.1 × 4.6 mm), which was placed in a column oven at 40°C. […] The HPLC gradient was as follows: initial conditions were 5% mobile phase B for 1 minute, then increased to 20% at 10 minutes post injection where it was held (isocratic) up to 20 minutes. […] The post column flow was directed to the fraction collector operated in a time‐slice mode and containing 96‐well Lumaplates (Perkin Elmer). The plates were dried at room temperature and the radioactivity was measured using a microplate scintillation counter model TopCount NXT (Perkin Elmer) instrument (up to 3 × 100‐minute counting time). […] Metabolites were identified during the same injections using data generated by the high‐resolution mass spectrometer. The molecular ions and key fragments of each drug‐related component were determined. Key fragments for each metabolite were derived from their product ion mass spectra and were used to determine the metabolite structures. Where possible, structural assignments were supported by exact mass measurement, comparison with synthetic standards and/or Hydrogen/Deuterium (H/D) exchange LC‐MS(/MS).

[3] = target: T2, CYP3A4 (Homo sapiens, UniProt P08684); assay: Enzyme kinetics with recombinant CYP3A4 and scaling to HLM; type: in vitro ADME
T2 construct: purchased BD Biosciences
Experimental: as §1
The enzymatic reaction was stopped and the protein was precipitated by addition of an equal volume of methanol. […] The supernatant was withdrawn. Aliquots were analyzed by LSC and the supernatant was diluted with water to obtain a final solution containing less than 20% of the organic solvent. For samples of low substrate concentration, supernatants were evaporated to dryness under nitrogen, then re‐suspended in water containing less than 20% of methanol. Samples were analyzed by HPLC combined with radiodetection.

[4] = Human ADME study: safety assessments; type: in vivo; details: single oral 600 mg
Text: Safety analysis included monitoring and recording of all adverse events, laboratory tests (ophthalmologic exam, hematology, blood chemistry, and urinalysis), vital signs, electrocardiogram, and physical examination.

[5] = system: recombinant human CYPs and FMOs; assay: Biotransformation by a panel of 17 recombinant human CYPs and three FMOs; type: in vitro ADME
Experimental: as §1
(§2) The enzymatic reaction was stopped and the protein was precipitated by addition of an equal volume of methanol. After 30 min at −80°C, the samples were centrifuged at 30'000 x g for 15 min. The supernatant was withdrawn. Aliquots were analyzed by LSC and the supernatant was diluted with water to obtain a final solution containing less than 20% of the organic solvent. For samples of low substrate concentration, supernatants were evaporated to dryness under nitrogen, then re‐suspended in water containing less than 20% of methanol. Samples were analyzed by HPLC combined with radiodetection.
(§3) The relative contribution of CYP enzymes to oxidative hepatic metabolism was determined using their Clint values multiplied by the unbound fraction in microsomes and their abundances in human liver microsomes. ^15 Among the hepatic P450 enzymes, CYP3A4 contributed predominantly (97%) to metabolism in human liver microsomes (Table 1) with negligible fraction metabolized by CYP1A2 (1.1%), CYP2J2 (0.8%), and CYP3A5 (1.2%).

[6] = system: hepatic P450 isoenzymes (total); assay: as above; type: in vitro ADME; details: human, recombinant human CYPs, scaled to human liver microsomes, pH 7.4; sum over CYPs, based on recombinant enzyme data; read-out: Rel.Clint,u in HLM, total of hepatic P450 isoenzymes
Experimental: as §1, §2, §3

T2 sequence (P08684 whole entry): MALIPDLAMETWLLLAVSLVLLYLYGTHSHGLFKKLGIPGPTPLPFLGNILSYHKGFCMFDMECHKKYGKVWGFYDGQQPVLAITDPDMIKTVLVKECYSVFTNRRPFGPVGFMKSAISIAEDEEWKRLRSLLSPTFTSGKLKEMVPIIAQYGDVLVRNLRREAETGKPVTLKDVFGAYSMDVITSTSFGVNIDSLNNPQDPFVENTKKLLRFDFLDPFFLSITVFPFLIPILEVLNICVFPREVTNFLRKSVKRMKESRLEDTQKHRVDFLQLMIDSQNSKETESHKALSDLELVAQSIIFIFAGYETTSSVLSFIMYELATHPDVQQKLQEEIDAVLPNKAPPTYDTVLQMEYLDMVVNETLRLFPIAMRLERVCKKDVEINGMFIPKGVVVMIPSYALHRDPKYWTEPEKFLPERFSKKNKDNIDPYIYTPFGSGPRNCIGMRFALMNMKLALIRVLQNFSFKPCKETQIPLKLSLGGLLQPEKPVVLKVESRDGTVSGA

Question: Which “fm,CYP” value ([1]; CYP2J2, share of total CYP-mediated metabolism in HLM) does the source give for CN(C)C(=O)c1cc2cnc(Nc3ccc(N4CCNCC4)cn3)nc2n1C1CCCC1 [ribociclib, Ribociclib] here?
Answer: The value was 0.8%.

Question: What about the fumic ([1]; CYP2J2 incubation) of the same compound?
Answer: The fumic was 0.86.

Question: And the “Excretion (% of dose), Feces” value [2]?
Answer: Its value is 17.3 % of dose.

Question: And the “fm,CYP” value ([3]; CYP3A4, share of total CYP-mediated metabolism in HLM)?
Answer: Its value is 97%.

Question: What about the fumic ([3]; CYP3A4 incubation) of the same compound?
Answer: The fumic was 0.83.

Question: What about the Vmax ([3]; recombinant CYP3A4, substrate inhibition model) of the same compound?
Answer: Its Vmax is 12.3 ± 5.2 pmol/min/pmol.

Question: What about the “abdominal discomfort, share of subjects” value ([4]; 2 subjects of six) of the same compound?
Answer: Its value is 33.3%.

Question: What about the “discontinuation due to an AE” value [4] of the same compound?
Answer: Its value is “no subjects discontinued”.

Question: What about the “serious adverse events (SAEs)” value [4] of the same compound?
Answer: Its value is “No serious adverse events”.

Question: What about the “severity of all AEs” value [4] of the same compound?
Answer: The value was “grade 1”.

Question: And the “subjects with an AE suspected to be related to the study drug (headache)” value [4]?
Answer: Its value is “one subject”.

Question: What about the “subjects who experienced at least one adverse event (AE)” value ([4]; six healthy male subjects) of the same compound?
Answer: The value was “Five”.

Question: And the “turnover by recombinant enzymes” value ([5]; CYP1A2, CYP3A5, FMO3, and FMO5, 0.75 and 20 µmol/L, 15 min)?
Answer: The value was “Low metabolic activities”.

Question: What about the “turnover by recombinant enzymes” value ([5]; CYP1B1, CYP2A6, CYP2B6, CYP2C8, CYP2C9, CYP2C18, CYP2C19, CYP2D6, CYP2E1, CYP4A11, and CYP4F2) of the same compound?
Answer: Its value is “No metabolic activities were detected”.

Question: And the “turnover by recombinant enzymes” value ([5]; CYP3A4, CYP2J2, CYP1A1, FMO1, and FM03, 0.75 and 20 µmol/L, 15 min)?
Answer: Its value is “high turnover”.

Question: And the microsomal CLint [6]?
Answer: The microsomal CLint was 49.2 µL/min/mg.

Reference: publication PMC7287031 (Pharmacology Research & Perspectives, 2020)
